Results published in the supplement of paper PMC5579334.
± gives the standard deviation of the averaged measurements.

What was measured:
HS-PSS [1] = test: drug sensitivity score (DSS, CellTiter-Glo viability, 72 h) (DSS (dimensionless)); higher = more sensitive; extreme values may be limits of the assay
Procedure, shortened: (§1)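 Viability was scored by CellTiter-Glo ATP luminescence, scaled from vehicle to positive-control wells, with duplicates averaged where present. The cells, MPNST lines and primary human Schwann cells at 750–1000 per well, sat 72 h at 37 °C, 5% CO2, in 384-well plates preprinted with each compound at five concentrations in 10-fold steps. Four-parameter logistic fits were run on the data. These fits give drug sensitivity score and relative IC50 censored at the top concentration, and percent inhibition is reported at the top concentration.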

HS-Sch-2 [2] = test: as above
Procedure, shortened: as §1

[3] = test system: HSC1 (primary human Schwann cells); test: as above
Procedure, shortened: as §1

[4] = test system: HSC2 (primary human Schwann cells); test: as above
Procedure, shortened: as §1

S1507-2 [5] = test: as above
Procedure, shortened: as §1

S462 [6] = test: as above
Procedure, shortened: as §1

ST8814 [7] = test: as above
Procedure, shortened: as §1

STS26T [8] = test: as above
Procedure, shortened: as §1

YST-1 [9] = test: as above
Procedure, shortened: as §1

HS-PSS [10] = test: drug sensitivity score (DSS, CellTox-Green cytotoxicity, 72 h) (DSS (dimensionless)); higher = more cytotoxic; extreme values may be limits of the assay
Procedure, shortened: (§2)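 MPNST cell lines and primary human Schwann cells were incubated 72 h at 37 °C in 384-well plates holding five 10-fold compound dilutions. CellTox-Green was added before seeding at a final 1:1000 dilution and reported fluorescence from DNA released by disrupted cells. Signals were scaled to vehicle and positive-control wells, and cultures failing plate quality control were dropped. Drug sensitivity score and relative IC50 come from four-parameter logistic fits, with IC50 censored at the top concentration.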

[11] = test system: HSC1 (primary human Schwann cells); test: as above
Procedure, shortened: as §2

[12] = test system: HSC2 (primary human Schwann cells); test: as above
Procedure, shortened: as §2

S1507-2 [13] = test: as above
Procedure, shortened: as §2

ST8814 [14] = test: as above
Procedure, shortened: as §2

STS26T [15] = test: as above
Procedure, shortened: as §2

HS-PSS [16] = test: % inhibition of CellTiter-Glo viability at highest tested concentration (72 h), relative to DMSO and benzethonium chloride controls; higher = more inhibition
Procedure, shortened: as §1

HS-Sch-2 [17] = test: as above
Procedure, shortened: as §1

[18] = test system: HSC1 (primary human Schwann cells); test: as above
Procedure, shortened: as §1

[19] = test system: HSC2 (primary human Schwann cells); test: as above
Procedure, shortened: as §1

S1507-2 [20] = test: as above
Procedure, shortened: as §1

S462 [21] = test: as above
Procedure, shortened: as §1

ST8814 [22] = test: as above
Procedure, shortened: as §1

STS26T [23] = test: as above
Procedure, shortened: as §1

YST-1 [24] = test: as above
Procedure, shortened: as §1

| SMILES | drug sensitivity score (HS-PSS [1]) | drug sensitivity score (HS-Sch-2 [2]) | drug sensitivity score [3] | drug sensitivity score [4] | drug sensitivity score (S1507-2 [5]) | drug sensitivity score (S462 [6]) | drug sensitivity score (ST8814 [7]) | drug sensitivity score (STS26T [8]) | drug sensitivity score (YST-1 [9]) | drug sensitivity score (HS-PSS [10]) | drug sensitivity score [11] | drug sensitivity score [12] | drug sensitivity score (S1507-2 [13]) | drug sensitivity score (ST8814 [14]) | drug sensitivity score (STS26T [15]) | % inhibition (HS-PSS [16]) [%] | % inhibition (HS-Sch-2 [17]) [%] | % inhibition [18] [%] | % inhibition [19] [%] | % inhibition (S1507-2 [20]) [%] | % inhibition (S462 [21]) [%] | % inhibition (ST8814 [22]) [%] | % inhibition (STS26T [23]) [%] | % inhibition (YST-1 [24]) [%] |
| --- | --- | --- | --- | --- | --- | --- | --- | --- | --- | --- | --- | --- | --- | --- | --- | --- | --- | --- | --- | --- | --- | --- | --- | --- |
| Cc1cc(Nc2nc(N[C@@H](C)c3ncc(F)cn3)ncc2Cl)[nH]n1 [AZD1480] (max concentration tested 1000 nM) | 0.78 | 0 | 2.84 | 0.934 | 0.0872 ± 0.12 | 1.64 ± 0.2 | 0.0148 | 0.3 | 0.54 | 0 | 0 | 0.662 | 5.43 ± 7.7 | 0 | 0 | 20.3 | 2.41 | 37.6 | 17 | 11.6 ± 8 | 26.4 ± 3.4 | 10.4 | 18.1 | 20.3 |
| CNC(=O)c1cccc(-c2ccc3c(N4CCOC[C@@H]4C)nc(N4CCOC[C@@H]4C)nc3n2)c1 [AZD2014] (max concentration tested 10000 nM) | 10.4 | 11.7 | 15.2 | 15 | 12.6 ± 1 | 11.1 ± 0.51 | 10.7 | 12 | 17.9 | 0 | 0 | 0 | 0 | 0 | 0 | 69.8 | 71 | 87.4 | 87.1 | 75.49 ± 0.4 | 66.2 ± 1.5 | 78.5 | 75.4 | 79.2 |
| COc1cc(CCc2cc(NC(=O)c3ccc(N4CC(C)NC(C)C4)cc3)n[nH]2)cc(OC)c1 (configuration not stated) [AZD4547] (max concentration tested 1000 nM) | 0 | 1.94 | 3.09 | 0 | 1.28 ± 0.63 | 2.85 ± 0.75 | 0 | 0 | 0 | 0 | 0 | 0 | 0.158 ± 0.22 | 0 | 0 | 4.91 | 33.5 | 22.4 | 4.39 | 22.2 ± 3.5 | 24.6 ± 2.2 | 9.11 | -2.98 | 3.65 |
| NC(=O)Nc1cc(-c2cccc(F)c2)sc1C(=O)N[C@H]1CCCNC1 [AZD7762] (max concentration tested 1000 nM) | 4.8 | 12.7 | 6.7 | 3.95 | 10.9 ± 0.13 | 14.7 ± 0.2 | 8.3 | 9.05 | 4.02 | 0.32 | 3.66 | 5.55 | 3.7 ± 0.91 | 5.42 | 9.01 | 61.9 | 90.7 | 72.8 | 70.2 | 80.47 ± 0.4 | 98.22 ± 0.35 | 86.2 | 90.7 | 71.9 |
| COc1ccc(-c2ccc3c(N4CCOC[C@@H]4C)nc(N4CCOC[C@@H]4C)nc3n2)cc1CO [AZD8055] (max concentration tested 10000 nM) | 17 | 17.9 | 26.2 | 27.2 | 22.5 ± 1.3 | 22.3 ± 1.8 | 18 | 21 | 25.1 | 0.77 | 0 | 0 | 0 | 0.371 | 0 | 70.7 | 75.8 | 89.3 | 89.9 | 85.4 ± 0.61 | 74.8 ± 1.4 | 84.1 | 82 | 78.6 |
| C[C@]12CC[C@H](O)CC1=CC[C@@H]1[C@@H]2CC[C@]2(C)C(c3cccnc3)=CC[C@@H]12 [Abiraterone] (max concentration tested 5000 nM) | 0 | 0 | 0.394 | 1.01 | 1.83 ± 2 | 0.775 ± 0.16 | 0 | 0 | 0 | 0 | 0 | 0 | 0.133 ± 0.19 | 0 | 0 | -3.84 | 3.26 | 12.6 | 18.7 | 17.1 ± 2.1 | 7.79 ± 0.37 | 4.42 | 3.38 | 5.69 |
| CN(C)C/C=C/C(=O)Nc1cc2c(Nc3ccc(F)c(Cl)c3)ncnc2cc1O[C@H]1CCOC1 [Afatinib] (max concentration tested 1000 nM) | 2.49 | 1.58 | 0 | 0 | 1.88 ± 2.7 | 0 | 0 | 0 | 0 | 0 | 0 | 0 | 0 | 0 | 0 | 29.9 | 21.2 | 8.81 | 3.38 | 11.6 ± 4.3 | 2.97 ± 6.7 | 3.12 | 12.7 | 3.62 |
| COc1cc(Nc2ncc3c(n2)-c2ccc(Cl)cc2C(c2c(F)cccc2OC)=NC3)ccc1C(=O)O [Alisertib] (max concentration tested 10000 nM) | 3.93 | 11.3 | 16.7 | 17.5 | 11.77 ± 0.033 | 18.8 ± 1.3 | 10.5 | 14.9 | 15 | 0 | 0 | 0 | 4.28 ± 3.2 | 7.04 | 18.8 | 44.7 | 64.5 | 65.5 | 57.6 | 50.5 ± 5.3 | 59.1 ± 1 | 59.4 | 58.4 | 47.5 |
| Oc1ncnc2[nH]ncc12 [Allopurinol] (max concentration tested 10000 nM) | 0 | 0 | 0 | 0 | 0 | 0 | 0 | 0 | 0 | 0 | 0 | 0 | 0 | 0 | 0 | 6.72 | 8.43 | 5.09 | 1.63 | -4.6 ± 1.9 | -1.67 ± 0.31 | -3.79 | 6.65 | 8.22 |
| CN(C)c1nc(N(C)C)nc(N(C)C)n1 [Altretamine] (max concentration tested 10000 nM) | 0 | 0 | 0 | 0 | 0 | 0 | 0 | 0 | 0 | 0 | 0 | 0 | 0.0018 ± 0.0026 | 0 | 0 | -1.71 | -1.37 | 6.31 | -0.459 | -7.42 ± 0.53 | -12.7 ± 1.5 | -6.95 | 5.66 | 9.76 |
| CO[C@H]1/C=C\C=C(/C)C(=O)NC2=CC(=O)C(NCCN(C)C)=C(C[C@@H](C)C[C@H](OC)[C@H](O)[C@@H](C)/C=C(\C)[C@@H]1OC(N)=O)C2=O [Alvespimycin] (max concentration tested 1000 nM) | 13.8 | 15.8 | 10 | 9.75 | 12.3 ± 0.18 | 15.4 ± 0.78 | 14.6 | 12.5 | 15.4 | 3.83 | 8.04 | 8.36 | 7.17 ± 1.2 | 6.78 | 7.8 | 85.3 | 100 | 98.1 | 96.2 | 95.7 ± 2.9 | 99.51 ± 0.13 | 98.8 | 91.8 | 78.2 |
| CN1CC[C@H](c2c(O)cc(O)c3c(=O)cc(-c4ccccc4Cl)oc23)[C@H](O)C1 [Alvocidib] (max concentration tested 10000 nM) | 20.4 | 20.6 | 18 | 17.9 | 15.5 ± 0.93 | 21.1 ± 0.91 | 17.8 | 20.1 | 20.5 | 4.23 | 8.24 | 11.7 | 2.61 ± 3.7 | 4.45 | 10.1 | 83.7 | 101 | 85.4 | 89.1 | 81.118 ± 0.0062 | 99.41 ± 0.97 | 79.8 | 95.8 | 97.8 |
| CCC1(c2ccc(N)cc2)CCC(=O)NC1=O (configuration not stated) [Aminoglutethimide] (max concentration tested 10000 nM) | 0 | 0 | 0 | 0 | 0 | 0 | 0 | 0 | 0 | 0 | 0 | 0 | 0 | 0 | 0 | 1.47 | 3.62 | 8.78 | -6.11 | 3.35 ± 1.2 | -7.67 ± 7.8 | -3.31 | 2.67 | -9.69 |
